# Assay results taken from article PMC10419174, “WR1065 conjugated to thiol-PEG polymers as novel anticancer prodrugs: broad spectrum efficacy, synergism, and drug resistance reversal” (Frontiers in Oncology, 2023).
# Read-outs that look alike come from different tables or passages of the source.
# Test system: Malignant pleural mesothelioma HMESO1 cells
# Conditions: for Fold increase in efficacy: drug alone ÷ drug in 4SP65-DDP combination
# Procedure: The percentage of growth inhibition was calculated as follows: […]
# [1] = 48-h treatment, amifostine ND = not definable up to 500 µM
# [2] = drug alone, 48 h, 4SP65/cisplatin study
substance,measurement,setting,value
4-star-PEG-S-S-WR1065 [4SP65],GI50,[1],1300 ± 400 nM
same,IC50,[1],2900 ± 1000 nM
same,LC99,[1],7.9 ± 2.6 µM
same,TGI,[1],2900 ± 800 nM
same,Fold increase in efficacy,at GI50,1.5 (NS) fold
same,Fold increase in efficacy,at IC50,1.1 (NS) fold
same,Fold increase in efficacy,"at LC50, GoE = gain of effect",1.0 (NS) fold
same,Fold increase in efficacy,"at LC99, GoE = gain of effect",1.1 (NS) fold
same,Fold increase in efficacy,at TGI,1.3 (NS) fold
same,GI50,[2],2000 ± 300 nM
same,IC50,[2],4700 ± 200 nM
same,TGI,[2],4300 ± 200 nM
same,LC99,"drug alone, 48 h, 4SP65/cisplatin study, ND = not definable, highest concentration in parentheses",12.4 ± 0.1 µM
